Measurements taken from article PMC7051184, “C9orf72 arginine-rich dipeptide repeat proteins disrupt karyopherin-mediated nuclear import” (eLife, 2020).
Where a SMILES comes first, the peptide text is derived from it.

Key:
[1] = molecular target: T1, importin β-mediated nuclear import of Rango (Homo sapiens, UniProt Q14974); assay: Permeabilized cell nuclear import assay, Rango, HeLa; type: cell-based
[2] = Bead halo assay, bare neutravidin beads (non-specific control); settings: AF488-labeled, 200 nM, binding buffer
Method: The bead halo assay was carried out as described with minor modifications ([Patel and Rexach, 2008]), using […] polystyrene beads coated with neutravidin (for biotinylated proteins) or glutathione (for GST-fusion proteins) (Spherotech, Lake Forest, IL). Beads were coated overnight at 4°C at saturating concentrations per manufacturers’ instructions and rinsed 2x in binding buffer (20 mM HEPES [pH 7.4], 150 mM KOAc, 2 mM Mg(OAc)2, 1 mM DTT, 0.1% Tween-20). Immediately prior to the assay, fluorescent bait proteins and beads were combined with 4x assay buffer (40 mM EDTA, 40 mg/ml BSA, 500 mM NaCl, and 0.2% Tween) to a total of 40 µL per well, in optical glass-bottom 96-well plates (Cellvis, Mountain View, CA). Reactions were allowed to equilibrate at room temperature for a minimum of 30 min prior to imaging at 100x on an LSM800 confocal microscope (Zeiss, Oberkochen, Germany). Intensity profiles comparing the maximum rim intensity to the background were plotted in ImageJ (NIH) by an investigator blinded to experimental conditions.

Nup62 = assay: DPR aggregation assay and western blot, Nup62; type: biochemical, human; settings: 100 µM 10mer in 2.5 mg/ml HEK lysate, normalized to untreated HEK
Method: (§1) Supernatant and pellet fractions (for all 5 DPRs, and control/buffer only) were prepared as in the nuclear transport assays, by adding 100 µM 10mers to 2.5 mg/ml HEK lysate in 100 µL TRB. Supernatants were boiled in Laemmli (BioRad) for 5 min. Pellets were boiled for 15 min followed by sonication in order to fully disperse aggregates for SDS-PAGE. Equal volumes of supernatant and pellet fractions were run on 4–12% Bolt Bis-Tris Plus gels (ThermoFisher), transferred to nitrocellulose membrane using an iBlot2 dry blotting system (ThermoFisher). Protein loading was analyzed by BLOT-Faststain (G-biosciences, St. Louis, MO), according to the manufacterers’ instructions. For immunodetection, membranes were blocked with 5% non-fat milk in TBST and probed by sequential incubation with the primary antibodies as detailed in the table below. Detection was by HRP-conjugated secondary antibodies/chemiluminescence using an ImageQuant LAS 4000 system (GE, Chicago, IL). To permit sequential probing of membranes without stripping, signals were quenched by incubation with prewarmed 30% H20_2 for 20 min ([Sennepin et al., 2009]). Band intensities were measured by ImageQuant software. For pellet vs. supernatant fractions, all were expressed as percent untreated control. For blots in Figure 1E, samples were run on 4–20% SDS PAGE minigels (ThermoFisher) and blotted to PVDF membranes (Immun-Blot PVDF, Bio-Rad) using the Bio-Rad TransBlot Turbo apparatus, and probed as above. The chemiluminescence signal was captured with a Bio-Rad ChemiDoc XRS+ digital imaging system.

RCC1 = assay: DPR aggregation assay and western blot, RCC1 (negative control); type: biochemical, human; settings: 100 µM 10mer in 2.5 mg/ml HEK lysate, normalized to untreated HEK
Method: as §1

Nup98 = assay: DPR aggregation assay and western blot, Nup98; type: biochemical, human; settings: 100 µM 10mer in 2.5 mg/ml HEK lysate, normalized to untreated HEK
Method: as §1

[3] = molecular target: T1, importin β-mediated nuclear import of Rango; assay: Fractionated Rango transport assay (aggregates present or supernatant only), HeLa; type: cell-based
Method: A single cell-derived clone of HeLa cells (ATCC, Manassas, VA; mycoplasma negative and validated by STR profiling) were maintained in OptiMEM (Gibco/ThermoFisher) with 4% FBS and plated on uncoated optical glass-bottom 96 well plates, at appropriate densities to reach 70–90% confluence on the day of the transport assay. To permeabilize, cells were rinsed for 2 min in ice-cold PBS, and permeabilized on ice for 10 min in 15–30 µg/mL digitonin (Calbiochem, San Diego, CA) in permeabilization buffer (PRB, 20 mM HEPES, 110 mM KOAc, 5 mM Mg(OAc)2, 0.5 mM EGTA, 250 mM sucrose, pH 7.5, with protease inhibitor cocktail). Following permeabilization, cells were placed on ice and rinsed 3 × 5 min in transport buffer (TRB, 20 mM HEPES, 110 mM KOAc, 2 mM Mg(OAc)2, 5 mM NaOAc, 0.5 mM EGTA, 250 mM sucrose, pH 7.3, with protease inhibitor cocktail). The optimal digitonin concentration varied by cell density and passage number, and was optimized prior to each set of assays for the ability to permeabilize the majority of plasma membranes while maintaining nuclear exclusion of a 70 kD fluorescent dextran (ThermoFisher).
Reaction mixes consisting of 2.5 mg/ml lysate, ER, fluorescent cargo (200 nM Rango and YFP-M9-CFP, 500 nM GST-GFP-NLS), Hoechst, DPRs, RNA, or inhibitors (100 µM importazole (IPZ, Millipore Sigma); 0.8 mg/mL wheat germ agglutinin (WGA, Millipore Sigma) were assembled on ice during cell permeabilization. DPRs or inhibitors were allowed to equilibrate in cell lysate for at least 30 min prior to initiation of transport. Every plate included: (1) Cargo alone: fluorescent cargo, but no ER or lysate, (2) Untreated controls: fluorescent cargo, ER, and lysate, and (3) Inhibitor: fluorescent cargo, ER, lysate, and IPZ (Rango and GST-GFP-NLS reactions) or WGA (YFP-M9-CFP). Preassembled transport reactions were then transferred onto permeabilized cells via multichannel pipette, and allowed to proceed at room temperature for 2 hr (Rango, YFP-M9-CFP) or 4 hr (GST-GFP-NLS). Cells were fixed in 4% paraformaldehyde/PBS, rinsed 2x with PBS, and transferred to 50% glycerol/PBS for immediate imaging.
For a subset of neuron transport assays, transport was monitored live via time lapse imaging every 5 min for 30 min. […]
Multiple non-overlapping fields per well (4 for time-lapse imaging, 9-16 for fixed imaging), were captured at 40x on an ImageXpress Micro XLS high-content microscope (Molecular Devices, San Jose, CA), and the ratio of nuclear to cytoplasmic fluorescence intensity was calculated using the MetaXpress automated translocation-enhanced module. […] Resulting N/C ratios were expressed as % untreated, to permit comparisons across biological replicates.

T1 sequence (Q14974 whole entry): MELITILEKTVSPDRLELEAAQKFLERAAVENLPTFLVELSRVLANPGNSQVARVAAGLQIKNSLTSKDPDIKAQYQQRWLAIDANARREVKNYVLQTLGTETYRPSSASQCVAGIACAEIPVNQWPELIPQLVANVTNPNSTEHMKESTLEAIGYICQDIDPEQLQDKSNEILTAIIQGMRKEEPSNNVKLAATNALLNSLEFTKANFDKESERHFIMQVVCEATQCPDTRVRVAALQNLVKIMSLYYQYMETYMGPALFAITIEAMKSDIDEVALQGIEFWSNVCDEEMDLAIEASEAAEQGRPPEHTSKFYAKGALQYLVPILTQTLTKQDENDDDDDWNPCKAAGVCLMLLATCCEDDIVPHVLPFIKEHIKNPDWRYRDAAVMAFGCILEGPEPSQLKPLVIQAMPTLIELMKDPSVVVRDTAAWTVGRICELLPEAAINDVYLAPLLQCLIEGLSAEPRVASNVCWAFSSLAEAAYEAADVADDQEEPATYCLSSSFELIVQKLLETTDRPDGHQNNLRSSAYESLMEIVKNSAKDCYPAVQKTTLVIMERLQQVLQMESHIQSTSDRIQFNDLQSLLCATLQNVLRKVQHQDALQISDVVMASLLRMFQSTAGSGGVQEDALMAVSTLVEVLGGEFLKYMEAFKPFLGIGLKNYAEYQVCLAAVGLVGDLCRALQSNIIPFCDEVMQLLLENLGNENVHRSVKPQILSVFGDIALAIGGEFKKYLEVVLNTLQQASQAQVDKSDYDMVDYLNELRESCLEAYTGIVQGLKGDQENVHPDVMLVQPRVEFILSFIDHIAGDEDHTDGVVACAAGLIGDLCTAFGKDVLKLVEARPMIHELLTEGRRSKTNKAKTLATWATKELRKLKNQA

| NCT inhibition in permeabilized HeLa [1] | Compound | Binding to bare beads [2] | Nup62 band density, Pellet (Nup62; Blot 1) [% control] | Nup62 band density, Supernatant (Nup62; Blot 1) [% control] | Nup62 band density, Pellet (Nup62; Blot 2) [% control] | Nup62 band density, Supernatant (Nup62; Blot 2) [% control] | RCC1 band density, Pellet (RCC1; Blot 1) [% control] | RCC1 band density, Supernatant (RCC1; Blot 1) [% control] | RCC1 band density, Pellet (RCC1; Blot 2) [% control] | RCC1 band density, Supernatant (RCC1; Blot 2) [% control] | Nup98 band density, Pellet (Nup98; Blot 1) [% control] | Nup98 band density, Supernatant (Nup98; Blot 1) [% control] | Nup98 band density, Pellet (Nup98; Blot 2) [% control] | Nup98 band density, Supernatant (Nup98; Blot 2) [% control] | Rango import with supernatant only (aggregates removed by centrifugation) [3] | Rango import with supernatant only plus RNA ([3]; RNA added) |
| --- | --- | --- | --- | --- | --- | --- | --- | --- | --- | --- | --- | --- | --- | --- | --- | --- |
| did not see NCT inhibition | GA10: Synthetic 10-mer GA dipeptide repeat with C-terminal lysine and cysteine (GAGAGAGAGAGAGAGAGAGAKC) |  |  |  |  |  |  |  |  |  |  |  |  |  |  |  |
|  | N=C(N)NCCC[C@H](NC(=O)[C@@H]1CCCN1C(=O)[C@H](CCCNC(=N)N)NC(=O)[C@@H]1CCCN1C(=O)[C@H](CCCNC(=N)N)NC(=O)[C@@H]1CCCN1C(=O)[C@H](CCCNC(=N)N)NC(=O)[C@@H]1CCCN1C(=O)[C@H](CCCNC(=N)N)NC(=O)[C@@H]1CCCN1C(=O)[C@H](CCCNC(=N)N)NC(=O)[C@@H]1CCCN1C(=O)[C@H](CCCNC(=N)N)NC(=O)[C@@H]1CCCN1C(=O)[C@H](CCCNC(=N)N)NC(=O)[C@@H]1CCCN1C(=O)[C@H](CCCNC(=N)N)NC(=O)[C@@H]1CCCN1C(=O)[C@H](CCCNC(=N)N)NC(=O)[C@@H]1CCCN1)C(=O)O [PR10] (H-PRPRPRPRPRPRPRPRPRPR-OH; N-terminus and C-terminus assumed) | modest non-specific binding | 204.0 | 154.3 | 227.1 | 111.0 | 27.7 | 103.7 | 109.0 | 124.4 | 109.9 | 57.2 | 150.1 | 67.5 | nuclear import remained perturbed | restored by the addition of RNA |
